Experimental data: patent publication US20120289501A1, “Benzene-fused 6-membered oxygen-containing heterocyclic derivatives of bicyclic heteroaryls” (NOVARTIS AG, priority 2009, published 2012)

These compounds were tested against IGF1R (Homo sapiens, UniProt P08069) (assay: Cellular IGF-1R assay: inhibition of IGF1R phosphorylation in transduced Hek293 cells, capture ELISA (MSD)).
Assay type: cell-based
Set-up: Hek293 cells transduced with the corresponding receptors; expressed in transfected cells; host or cells: Hek293 (Hek293-IGF1R)
Protocol: In this assay the activity of the compounds of the invention against Insulin-like growth factor I (IGF-1) induced autophosphorylation of the IGF-IR is determined. The assay is conducted as follows: Compound-mediated inhibition of IGF1R and INSR phosphorylation in Hek293 cells transduced with the corresponding receptors is assessed in a capture ELISA format using the MSD (Meso Scale Discovery) platform. Briefly, 30′000 cells washed and diluted in starvation medium (DMEM high glucose supplemented with 0.1% BSA) are seeded in 90 μL per well into 96-well plates pre-coated with poly-D-lysine (0.1 mg/mL in PBS/0). After 24 h incubation at 37° C. and 5% CO2, dose-response effects are determined with 3-fold serial compound dilutions, starting at 10 μM. The final vehicle concentration is 0.1% DMSO in all wells. Following pre-incubation with compounds for 1 h, receptor phosphorylation is triggered by a 10 min exposure to 1.0 ng/μL IGF for Hek293-IGF1R cells, and 5.0 ng/μL insulin for Hek293-InsR cells. Cell lysis is achieved by addition of 80 μL MSD lysis buffer per aspirated well, incubation on ice for 20 min, and a freeze-thaw cycle. Target phosphorylation is then assessed by transferring volumes corresponding to approx. 6 μg Hek293-IGF1R or 0.6 μg Hek293-InsR lysates to MSD assay plates pre-coated with total-IGF1R or total-InsR Abs, respectively. After incubation for 2 h at rt, wells are exposed for 1 hr to a rabbit monoclonal antibody (CST #3024, 1:1000) detecting pIGF1R(Tyr1135/1136) as well as pINSR(Tyr1150/1151). Immune complexes are detected by a SULFO-Tag™-coupled anti-rabbit IgG antibody in the presence of 150 μL MSD read-buffer. Light emission at 620 nm triggered by application of electric current is recorded on a MSD SectorImager 6000. Acquired raw data (mean Ru-ECL units) are processed in an Excel analysis template. The plate blank (MSD lysis buffer) is subtracted from all data points. The effect of a particular test compound concentration on receptor phosphorylation is expressed relative to the window defined by ligand-stimulated vs unstimulated control cells (set as 100%). IC50 values [nM] are determined using 4-parametric curve-fitting (XLfit software, V4.3.2). Alternatively, the assay can be conducted with a slightly different format; Compound-mediated inhibition of IGF-1R and InsR phosphorylation in HEK293 cells overexpressing the corresponding receptors were assessed by quantitative Western blot using an Odyssey infrared imager as readout.
Compound-mediated inhibition of IGF1R and INSR phosphorylation in Hek293 cells transduced with the corresponding receptors is assessed in a capture ELISA format using the MSD (Meso Scale Discovery) platform. Briefly, 30′000 cells washed and diluted in starvation medium (DMEM high glucose supplemented with 0.1% BSA) are seeded in 90 μL per well into 96-well plates pre-coated with poly-D-lysine (0.1 mg/mL in PBS/O). After 24 h incubation at 37° C. and 5% CO2, dose-response effects are determined with 3-fold serial compound dilutions, starting at 10 μM. The final vehicle concentration is 0.1% DMSO in all wells. Following pre-incubation with compounds for 1 h, receptor phosphorylation is triggered by a 10 min exposure to 1.0 ng/μL IGF for Hek293-IGF1R cells, and 5.0 ng/μL insulin for Hek293-InsR cells. Cell lysis is achieved by addition of 80 μL MSD lysis buffer per aspirated well, incubation on ice for 20 min, and a freeze-thaw cycle. Target phosphorylation is then assessed by transferring volumes corresponding to approx. 6 μg Hek293-IGF1R or 0.6 μg Hek293-lnsR lysates to MSD assay plates pre-coated with total-IGF1R or total-lnsR Abs, respectively. After incubation for 2 h at rt, wells are exposed for 1 hr to a rabbit monoclonal antibody (CST #3024, 1:1000) detecting pIGF1R(Tyr1135/1136) as well as pINSR(Tyr1150/1151). Immune complexes are detected by a SULFO-Tag™-coupled anti-rabbit IgG antibody in the presence of 150 μL MSD read-buffer. […]

Sequence of IGF1R (P08069 31-1367): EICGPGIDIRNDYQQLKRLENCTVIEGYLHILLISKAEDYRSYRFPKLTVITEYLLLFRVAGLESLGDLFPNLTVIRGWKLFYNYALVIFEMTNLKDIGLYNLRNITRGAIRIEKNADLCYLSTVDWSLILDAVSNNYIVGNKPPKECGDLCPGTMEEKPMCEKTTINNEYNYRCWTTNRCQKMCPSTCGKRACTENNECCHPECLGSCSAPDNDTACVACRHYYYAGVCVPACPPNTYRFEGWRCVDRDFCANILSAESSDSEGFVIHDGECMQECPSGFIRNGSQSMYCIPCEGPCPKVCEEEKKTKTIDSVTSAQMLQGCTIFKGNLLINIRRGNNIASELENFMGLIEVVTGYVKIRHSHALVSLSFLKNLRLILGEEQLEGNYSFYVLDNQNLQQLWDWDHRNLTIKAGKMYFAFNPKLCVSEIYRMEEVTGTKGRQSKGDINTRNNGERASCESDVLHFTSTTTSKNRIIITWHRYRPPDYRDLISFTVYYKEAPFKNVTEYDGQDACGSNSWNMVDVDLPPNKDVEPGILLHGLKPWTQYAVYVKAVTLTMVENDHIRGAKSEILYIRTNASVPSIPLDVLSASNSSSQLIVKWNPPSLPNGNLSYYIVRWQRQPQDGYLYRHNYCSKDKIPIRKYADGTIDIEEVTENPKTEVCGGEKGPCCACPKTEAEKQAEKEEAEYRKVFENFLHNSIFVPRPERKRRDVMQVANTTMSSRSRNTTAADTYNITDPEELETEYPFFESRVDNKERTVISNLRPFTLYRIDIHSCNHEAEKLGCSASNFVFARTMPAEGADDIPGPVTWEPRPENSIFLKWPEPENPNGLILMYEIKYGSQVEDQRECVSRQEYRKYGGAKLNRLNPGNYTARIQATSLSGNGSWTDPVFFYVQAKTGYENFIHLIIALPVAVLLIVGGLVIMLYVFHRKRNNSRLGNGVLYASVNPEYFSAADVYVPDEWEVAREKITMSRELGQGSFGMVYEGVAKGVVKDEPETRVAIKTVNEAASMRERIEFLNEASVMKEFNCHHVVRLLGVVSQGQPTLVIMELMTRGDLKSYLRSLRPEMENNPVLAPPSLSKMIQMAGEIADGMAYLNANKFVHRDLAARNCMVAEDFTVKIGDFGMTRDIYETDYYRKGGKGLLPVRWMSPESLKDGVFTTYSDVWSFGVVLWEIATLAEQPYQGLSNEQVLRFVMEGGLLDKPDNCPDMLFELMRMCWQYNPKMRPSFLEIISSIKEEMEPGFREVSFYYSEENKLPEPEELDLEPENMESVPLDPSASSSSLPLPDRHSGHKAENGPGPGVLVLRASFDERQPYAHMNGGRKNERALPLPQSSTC

Compound	IC50 [nM]
CC1(O)CC(c2nc(-c3ccc4c(c3)O[C@@H](c3ccccc3)CC4)c3c(N)nccn23)C1 (stereo partly drawn) [Example 19, (R,S)—(Z)-3-[8-Amino-1-(2-phenyl-chroman-7-yl)-imidazo[1,5-a]pyrazin-3-yl]-1-methylcyclobutanol]	158
Nc1ncnc2c1c(-c1ccc3c(c1)OC(C1CCCO1)CC3)cn2C1CC(CN2CC3CC2CS3(=O)=O)C1 (mixture of isomers) [Example 66, 7-[cis-3-((S,S)-2,2-dioxo-2λ6-thia-5-aza-bicyclo[2,2,1]hept-5-ylmethyl)-cyclobutyl]-5-[2-trans-(tetrahydro-furan-2-yl-chroman-7-yl)-7H-pyrrolo[2,3-d]pyrimidin-4-ylamine]	24
Nc1ncnc2c1c(-c1ccc3c(c1)OC(c1ccccc1)CC3)cn2[C@H]1C[C@@](O)(CN2CCS(=O)(=O)CC2)C1 (stereo partly shown) [Example 45, (E)-3-[4-Amino-5-(2-phenyl-chroman-7-yl)-pyrrolo[2,3-d]pyrimidin-7-yl]-1-(1,1-dioxothiomorpholin-4-ylmethyl)-cyclobutanol]	< 5
CC(=O)N[C@H]1CC[C@@H](n2cc(-c3ccc4c(c3)OC(c3ccccc3)CC4)c3c(N)ncnc32)CC1 (mixture of isomers) [Example 55, (±)-N-(cis-4-(4-amino-5-(2-phenylchroman-7-yl)-7H-pyrrolo[2,3-d]pyrimidin-7-yl)cyclohexyl)acetamide]	108
Nc1ncnc2c1c(-c1ccc3c(c1)OC(c1ccccc1)CC3)cn2C1CC(CN2CCC(O)CC2)C1 (stereo not shown) [Example 37, 1-{3-[4-Amino-5-(2-phenyl-chroman-7-yl)-pyrrolo[2,3-d]pyrimidin-7-yl]-cyclobutylmethyl}-piperidin-4-ol]	46
Nc1ncnc2c1c(-c1ccc3c(c1)OC(c1ccccc1)CC3)cn2C1CC(O)(CO)C1 (single isomer, unassigned) [Example 42, (Z)-3-K-Amino-5-(2-phenyl-chroman-7-yl)-pyrrolo[2,3-d]pyrimidin-7-yl]-1-hydroxymethyl-cyclobutanol]	272 to 338
CC(C)C(=O)N[C@H]1CC[C@@H](n2cc(-c3ccc4c(c3)OC(c3ccccc3)CC4)c3c(N)ncnc32)CC1 (mixture of isomers) [Example 52, (±)-N-(cis-4-(4-amino-5-(2-phenylchroman-7-yl)-7H-pyrrolo[2,3-d]pyrimidin-7-yl)cyclohexyl)isobutyramide]	99
Nc1ncnc2c1c(-c1ccc3c(c1)OC(c1ccccc1)CC3)cn2[C@H]1C[C@@H](CN2[C@@H]3CC[C@H]2C[C@H](O)C3)C1 (mixture of isomers) [Example 36, (R,S)-8-{cis-3-[4-Amino-5-(2-phenyl-chroman-7-yl)-pyrrolo[2,3-d]pyrimidin-7-yl]-cyclobutylmethyl}-8-aza-bicyclo[3.2.1]octan-3-ol]	87
Nc1ncnc2c1c(-c1ccc3c(c1)OC(c1ccccc1)CC3)cn2[C@H]1C[C@@H](Cn2ccnc2CO)C1 (mixture of isomers) [Example 18, (R,S)-(1-{cis-3-[4-Amino-5-(2-phenyl-chroman-7-yl)-pyrrolo[2,3-d]pyrimidin-7-yl]-cyclobutylmethyl}-1H-imidazol-2-yl)-methanol]	14
Nc1ncnc2c1c(-c1ccc3c(c1)OC(c1ccccn1)CC3)cn2[C@H]1C[C@@H](CN2CCS(=O)(=O)CC2)C1 (mixture of isomers) [Example 54, (±)-7-(cis-3-(1,1-dioxo-thiomorpholin-4-ylmethyl)cyclobutyl)-5-(2-(pyridin-2-yl)chroman-7-yl)-7H-pyrrolo[2,3-d]pyrimidin-4-amine]	45

Other lines, results leading:

IC50 [nM]	Compound
9	Nc1ncnc2c1c(-c1ccc3c(c1)O[C@H](c1ccccc1)CC3)cn2[C@H]1C[C@@H](CN2CCS(=O)(=O)CC2)C1 [Example 25, (S)-7-[cis-3-(1,1-dioxo-thiomorpholin-4-ylmethyl)-cyclobutyl]-5-(2-phenyl-chroman-7-yl)-7H-pyrrolo[2,3-d]pyrimidin-4-ylamine]
96	Nc1ncnc2c1c(-c1ccc3c(c1)OC(c1ccccc1)CC3)cn2[C@H]1C[C@H](O)C1 (relative stereo) [Example 49, trans-3-[4-Amino-5-(2-phenyl-chroman-7-yl)-pyrrolo[2,3-d]pyrimidin-7-yl]-cyclobutanol]
44 to 143	Nc1ncnc2c1c(-c1ccc3c(c1)OC(c1ccccc1)CC3)cn2C1CC(O)(CO)C1 (single isomer, unassigned) [Example 41, (Z)-3-K-Amino-5-(2-phenyl-chroman-7-yl)-pyrrolo[2,3-d]pyrimidin-7-yl]-1-hydroxymethyl-cyclobutanol]
16	Nc1ncnc2c1c(-c1ccc3c(c1)OC(c1ccccc1)CC3)cn2[C@H]1C[C@@]2(CNC(=O)O2)C1 (stereo partly shown) [Example 44, (E)-2-[4-Amino-5-(2-phenyl-chroman-7-yl)-pyrrolo[2,3-d]pyrimidin-7-yl]-5-oxa-7-aza-spiro[3.4]octan-6-one]
24	(R,S)—N-{cis-3-[4-Amino-5-(2-phenyl-chroman-7-yl)-pyrrolo[2,3-d]pyrimidin-7-yl]-cyclobutylmethyl}-methanesulfonamide [Example 17]
49	CN1CCN(CC2CC(n3cc(-c4ccc5c(c4)OC(c4ccccc4)CC5)c4c(N)ncnc43)C2)CC1=O (stereo not shown) [Example 46, 4-{3-[4-Amino-5-(2-phenyl-chroman-7-yl)-pyrrolo[2,3-d]pyrimidin-7-yl]-cyclobutylmethyl}-1-methyl-piperazin-2-one]
76	Nc1ncnc2c1c(-c1ccc3c(c1)OC(c1ccccc1)CC3)cn2[C@H]1C[C@@]2(COC(=O)O2)C1 (stereo partly shown) [Example 43, (E)-2-[4-Amino-5-(2-phenyl-chroman-7-yl)-pyrrolo[2,3-d]pyrimidin-7-yl]-5,7-dioxa-spiro[3.4]octan-6-one]
31 to 112	Nc1ncnc2c1c(-c1ccc3c(c1)OC(c1ccccc1)CC3)cn2C1CC(O)(CO)C1 (single isomer, unassigned) [Example 27]
12	Nc1ncnc2c1c(-c1ccc3c(c1)OC(c1ccccc1)C=C3)cn2[C@H]1C[C@@H](CO)C1 (mixture of isomers) [Example 23, (R,S)-{cis-3-[4-Amino-5-(2-phenyl-2H-chromen-7-yl)-pyrrolo[2,3-d]pyrimidin-7-yl]-cyclobutyl}-methanol]
50	Nc1ncnc2c1c(-c1ccc3c(c1)OC(C1CCCO1)CC3)cn2C1CC(O)(CO)C1 (mixture of isomers) [Example 29, (E)-3-{4-Amino-5-[2-(tetrahydro-furan-2-yl)-chroman-7-yl]-pyrrolo[2,3-d]pyrimidin-7-yl}-1-hydroxymethyl-cyclobutanol]
69	Nc1ncnc2c1c(-c1ccc3c(c1)OC(c1ccccn1)CC3)cn2C1CC(CN2CC3CC2CS3(=O)=O)C1 [Example 62, 7-[cis-3-((S,S)-2,2-Dioxo-2λ6-thia-5-aza-bicyclo[2,2,1]kept-5-ylmethyl)-cyclobutyl]-5-(2-pyridin-2-yl-chroman-7-yl)-7H-pyrrolo[2,3-d]pyrimidin-4-ylamine]
100	(R,S)—(Z)-3-[8-Amino-1-(2-phenyl-chroman-7-yl)-imidazo[1,5-a]pyrazin-3-yl]-1-hydroxymethyl-cyclobutanol and (R,S)-(E)-3-[8-amino-1-(2-phenyl-chroman-7-yl)-imidazo[1,5-a]pyrazin-3-yl]-1-hydroxymethyl-cyclobutanol [Example 5]
